Laboratory results from patent publication US20210052701A1, “Methods of Treating Vascular Leakage Using CXCL12 Peptides” (The Medical College of Wisconsin, Inc., priority 2018, published 2021).

Key:
hPPAEC [1] = assay: In vitro vascular permeability assay (FITC-dextran), hPPAEC monolayer, CXCR4/ACKR3 ligands without thrombin; type: cell-based, human; conditions: 50 nM ligand for 10 min, then FITC-dextran; no thrombin
Protocol: FIGS. 1A-1B show expression of CXCR4, ACKR3 and CXCR4:ACKR3 heteromers on hPPAEC and effects of CXCR4/ACKR3 ligands on hPPAEC monolayer permeability. (A) Detection of CXCR4, ACKR3 and CXCR4:ACKR3 heteromers on hPPAEC by PLA. Typical PLA images for the detection of individual receptors and CXCR4:ACKR3 heteromers. Images show merged PLA/40,6-diamidino-2-phenylindole dihydrochloride (DAPI) signals. Ctrl: Omission of one secondary antibody. (B) hPPAEC were grown to a confluent monolayer on collagen-coated permeable membranes. Cells were then exposed to vehicle or 50 nM of CXCR4/ACKR3 ligands for 10 minutes, as indicated, followed by the addition of FITC-dextran. Endothelial permeability was assessed by measuring the amount of FITC-dextran that permeated through the cell monolayer. N=3 in quadruplicate. No cells: 100% permeability, open squares. RFU: Relative fluorescence units. *: p<0.05 vs. vehicle (2-way ANOVA/Bonferroni's multiple comparison post hoc test).
Cells and cell lines—Human primary pulmonary artery endothelial cells (hPPAEC) (ATCC, PCS-100-022) and the human lung microvascular endothelial cell line HULEC-5a (ATCC, CRL-3244) were cultured in vascular cell basal medium (ATCC, PCS-100-030) with endothelial cell growth kit-VEGF (ATCC, PCS-100-041). The HTLA cell line, a HEK293 cell line stably expressing a tTA-dependent luciferase reporter and a β-arrestin2-TEV fusion gene, was generously provided by the laboratory of Dr. Bryan Roth and maintained in high glucose Dulbecco's Modified Eagle's Medium supplemented with 10% (vol/vol) FBS, 1× non-essential amino acids, 100 U/mL penicillin, 100 μg/mL streptomycin, 50 μg/mL hygromycin B, and 2 μg/mL puromycin. All cells were cultured at 37° C., 5% CO2 in a humidified atmosphere.
(§1) In vitro vascular permeability assays—Permeability assays were obtained from Millipore (ECM642) and performed as per manufacturer's instructions. In brief, 96-well collagen-coated permeability assay plates were pre-hydrated for 15 min, 5×10^5 cells were seeded on each well and grown to a confluent monolayer for 48 hours. Fluorescein isothiocyanate (FITC)-dextran (20 μg/mL) was then added on top of the monolayer and the amount of FITC-dextran that permeated through the monolayer was quantified by measuring fluorescence in a Synergy 2 Multi-mode Microplate Reader (BioTek, Winooski, Vt.) at various time points over a 255 min time period.

hPPAEC [2] = assay: Effects of CXCR4 agonists / CXCL12 variants on thrombin-induced impairment of hPPAEC monolayer permeability; type: cell-based, human
Protocol: FIGS. 3A-3D show effects of CXCL12 and ubiquitin on thrombin-induced impairment of hPPAEC monolayer permeability. hPPAEC were grown to a confluent monolayer on collagen-coated permeable membranes. (A) hPPAEC were pre-treated with vehicle, 100 nM of CXCL12 or ubiquitin for 10 minutes, as indicated, and then exposed to thrombin (50 nM), followed by the addition of FITC-dextran. Vehicle: no thrombin. Endothelial permeability was assessed by measuring the amount of FITC-dextran that permeated through the cell monolayer. No cells: 100% permeability (open circles). RFU: Relative fluorescence units. N=3 in quadruplicate. *: p<0.05 vs. vehicle/thrombin. (B-D) hPPAEC were exposed to 35 nM of thrombin or vehicle. After 10 min, thrombin-exposed cells were treated with vehicle, CXCL12 (50 nM) and/or AMD3100 (10 μM) (B), with vehicle, ubiquitin (50 nM) and/or AMD3100 (10 μM) (C) or with various concentrations of ubiquitin (D) followed by the addition of FITC-dextran. The experimental conditions are indicated. Endothelial permeability was assessed by measuring the amount of FITC-dextran that permeated through the cell monolayer. RFU: Relative fluorescence units. N=3 in quadruplicate. *: p<0.05 vs. thrombin/vehicle (2-way ANOVA/Bonferroni's multiple comparison post hoc test).
(§2) FIGS. 7A-7D show dose-dependent effects of CXCL12α/β, CXCL12 (3-68) and CXCL12 mutants K27A/R41A/R47A, R47E and S-S4V on thrombin-induced impairment of hPPAEC monolayer permeability. hPPAEC cells were grown to a confluent monolayer on collagen-coated permeable membranes. hPPAEC were then exposed to 35 nM of thrombin. After 10 min, thrombin-exposed cells were treated with vehicle or 50 nM (A), 5 nM (B), 0.5 nM (C) or 0.05 nM (D) of the various proteins, as indicated. In (D) 5 nM CXCL12a was used as a positive control. N=3 in quadruplicate.
as §2, with “8A-8D” for “7A-7D”, “CXCL12α, CXCL121” for “CXCL12α/β, CXCL12 (3-68)”, “CXCL122” for “CXCL12 mutants K27A/R41A/R47A, R47E and S-S4V”, “CXCL12α” for “CXCL12a”
FIGS. 9A-9B show inhibition of thrombin-induced hyper-permeability of hPPAEC by CXCL12/CXCL12 variants. % inhibition: % inhibition of thrombin-induced hyperpermeability. Data from FIGS. 7 and 8 at t=255 min. N=3 in quadruplicate. *: p<0.05 vs. CXCL12a (2-way ANOVA/Bonferroni's multiple comparison post hoc test).
as §1

CXCR4 = target: T1, CXCR4 (Homo sapiens, UniProt P61073); assay: Presto-Tango β-arrestin 2 recruitment assay for CXCR4; type: cell-based
T1 construct: host or cells: HTLA cells (HEK293 line stably expressing a tTA-dependent luciferase reporter and a β-arrestin2-TEV fusion gene)
T1 sequence (P61073 whole entry, the tested form may be a part): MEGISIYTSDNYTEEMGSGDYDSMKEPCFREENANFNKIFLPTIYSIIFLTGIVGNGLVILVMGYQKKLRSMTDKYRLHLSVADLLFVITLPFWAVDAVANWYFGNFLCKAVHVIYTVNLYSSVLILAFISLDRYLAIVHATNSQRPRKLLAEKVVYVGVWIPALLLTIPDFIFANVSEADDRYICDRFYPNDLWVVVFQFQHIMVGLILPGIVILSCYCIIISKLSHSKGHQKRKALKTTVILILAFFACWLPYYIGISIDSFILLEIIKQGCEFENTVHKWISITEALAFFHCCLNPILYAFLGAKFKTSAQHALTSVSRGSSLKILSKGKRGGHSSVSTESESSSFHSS
Protocol: FIGS. 6A-6F show Presto-Tango β-arrestin 2 recruitment assays for CXCR4 (A-C) and ACKR3 (D-F). RLU %: % of the luminescence signal for 1 μM CXCL12α. N=9 for CXCL12a and n=3 for all other proteins.
Presto-Tango β-arrestin 2 recruitment assay—The PRESTO-Tango (parallel receptorome expression and screening via transcriptional out-put, with transcriptional activation following arrestin translocation) assay was performed as recently described. The Tango plasmids were a gift from Dr. Bryan Roth (all from Addgene). HTLA cells (2.5×10^5/well) were seeded in a 6-well plate and transfected with 1.5 μg of the Tango plasmids using Lipofectamine 3000 (ThermoScientific). The following day, transfected HTLA cells (1×10^5 cells/well) were plated onto Poly-L-Lysine pre-coated 96-well micro-plates and allowed to attach to the plate surface for at least 4 hours prior to treatment. Proteins used for treatment were prepared in twice the final concentration in culture media, added at a 1:1 vol/vol ratio and incubated overnight at 37° C., 5% CO2 in a humidified environment. The following morning, media was removed from cell culture plates and replaced with a 100 μL 1:5 mixture of Bright-Glo (Promega) and 1×HBSS, 20 mM HEPES solution. Plates were then incubated at room temperature before measuring luminescence on a Biotek Synergy II plate reader.

[3] = system: animal model of acute respiratory distress syndrome (ARDS); assay: Animal model of ARDS: lung ischemia reperfusion injury plus hemorrhage (P:F ratio, lung injury score); type: in vivo, Sprague-Dawley rats; conditions: for development of ARDS (P:F ratio): 0.14 μmol/kg i.v. within 10 min after reperfusion, until t=300 min; for histological signs of lung injury, injured lung (lung injury score): H&E sections, vs. vehicle
Protocol: Animals underwent 70 min of […] lung ischemia for 70 min plus hemorrhage to a MAP of 40 mmHg for the last 30 min of ischemia, followed by fluid resuscitation to a MAP of 60 mmHg until t=300 min. Arrow: drug injection. Dashed lines indicate the P:F ratio (mmHg) threshold values for the diagnosis of mild, moderate and severe ARDS. Vehicle: n=5. CXCL12: n=3. CXCL12: n=4. CXCL12-LM: n=3, CXCL12-LD: n=4. CXCL12 K27A/R41A/R47A: n=3. LI+HEM: lung ischemia reperfusion injury plus hemorrhage. Data are mean±SEM. *: p<0.05 vs. vehicle (2-way ANOVA/Dunnett's multiple comparisons test).
FIGS. 12A-12C show lung histology after treatment with CXCL12 and engineered CXCR4 agonists A. Lung specimens were placed in formalin fixative solution and were then embedded in paraffin wax, sliced into 5 μm sections and stained with H&E. Representative images from H&E stained lung sections from animals after vehicle (left) and CXCL12 ([…], right treatment. B/C. Lung injury scores (B. uninjured (left) lung; C. injured (right) lung). Data are median±interquartile ranges. Data were analyzed with the Kruskal Wallis test with Dunn's multiple comparisons test. The level of statistical significance (p) vs. ctrl. (vehicle treatment) indicated.
We tested therapeutic efficacy of wild-type CXCL12, CXXL12-locked dimer (LD), CXCL12-locked monomer (LM) and the triple mutant CXCL12 K27A/R41A/R47A in an animal model of acute respiratory distress syndrome (ARDS) (FIG. 11). All drugs were injected in a dose of 0.14 μmol/kg. Male Sprague-Dawley rats were anesthetized, orotracheally intubated, instrumented with arterial/venous catheters, and mechanically ventilated (PEEP 2 mmHg, FiO2 1.0). After a right lateral thoracotomy, a suture was tied around the hilum of the right lung. Animals underwent 70 min of right lung ischemia plus hemorrhage to a mean arterial blood pressure (MAP) of 40 mmHg for the last 30 min of lung ischemia. At t=70 min, the suture was removed, animals were ventilated with FiO2 1.0, PEEP 5 mmHg and resuscitated with crystalloids to a MAP of 60 mmHg until t=300 min. Vehicle and drugs were injected i.v. within 10 min after reperfusion.
We further evaluated histomorphology of the lungs from animals treated with vehicle, wild-type CXCL12, CXCL12-LD and CXCXL12-LM utilizing a standardized lung injury score. Lung slides stained with hematoxylin and eosin were examined under a light microscope by 4 investigators blinded to the identity of the specimens. The lung injury score was assessed as previously described/. In brief each investigator rendered a score of 0 (no damage) to 4+(maximal damage) based on an injury grading scale composed of six criteria. The slides were assessed for the extent of alveolar congestion, hemorrhage and edema, as well as alveolar and vessel wall PMN infiltration and alveolar wall thickness. […] Lung injury scores of the uninjured and injured lungs from animals treated with vehicle, wild-type CXCL12, CXCL12-LD and CXCXL12-LM are shown in FIGS. […], respectively.

Row | Molecule | effect on hPPAEC monolayer permeability (hPPAEC [1]) | effect on thrombin-induced permeability of hPPAEC when added after thrombin (hPPAEC [2]; thrombin 35 nM, after 10 min CXCL12 or ubiquitin 50 nM, AMD3100 10 μM) | antagonism of the CXCL12 effect on thrombin-induced permeability (hPPAEC [2]; thrombin 35 nM, CXCL12 50 nM plus AMD3100 10 μM) | potency (EC50) to recruit β-arrestin 2 to CXCR4, compared with CXCL12α (CXCR4) | development of ARDS (P:F ratio) [3] | histological signs of lung injury, injured lung (lung injury score) [3] | potency to attenuate thrombin-induced permeability of hPPAEC (in words) (hPPAEC [2]) | concentration at which thrombin-mediated hPPAEC barrier impairment was affected (hPPAEC [2]; tested 0.05-50 nM, t=255 min)
1 | c1cc(CN2CCCNCCNCCCNCC2)ccc1CN1CCCNCCNCCCNCC1 [AMD3100] | did not affect hPPAEC permeability | did not affect thrombin-mediated hyper-permeability of hPPAEC | could be antagonized | – | – | – | – | –
2 | CXCL121: constitutively monomeric CXCL12 variant with L55C and I58C substitutions (SEQ ID NO:2) | – | – | – | no statistically significant differences | prevented development of ARDS | significantly reduced | – | –
3 | CXCL122: constitutively dimeric, disulfide-locked CXCL12 variant containing L36C/A65C mutations (SEQ ID NO:3) | – | – | – | no statistically significant differences | prevented development of ARDS | significantly reduced | significantly reduced potency | 50 nM
4 | CXCL11: an ACKR3 and CXCR3 agonist (protein, UniProt O14625 22-94, looked up) C-X-C motif chemokine 11: FPMFKRGRCLCIGPGVKAVKVADIEKASIMYPSNNCDKIEVIITLKENKGQRCLNPKSKQARLIIKKVERKNF | did not affect hPPAEC permeability | – | – | – | – | – | – | –
